# According to ChEMBL document CHEMBL4765306, “Design, synthesis and biological evaluation of novel naturally-inspired multifunctional molecules for the management of Alzheimer's disease” (Eur J Med Chem, 2020):
# pIC50: −log10 of the molar value.
# What was measured:
# [1] = target: Acetylcholinesterase (Homo sapiens, UniProt P22303); experiment: Inhibition of recombinant human erythrocyte AChE using acetylthiocholine iodide as substrate preincubated for 30 mins followed by substrate addition and measured after 30 mins by spectrophotometry based Ellman's method
# Chain of Acetylcholinesterase (P22303 whole entry): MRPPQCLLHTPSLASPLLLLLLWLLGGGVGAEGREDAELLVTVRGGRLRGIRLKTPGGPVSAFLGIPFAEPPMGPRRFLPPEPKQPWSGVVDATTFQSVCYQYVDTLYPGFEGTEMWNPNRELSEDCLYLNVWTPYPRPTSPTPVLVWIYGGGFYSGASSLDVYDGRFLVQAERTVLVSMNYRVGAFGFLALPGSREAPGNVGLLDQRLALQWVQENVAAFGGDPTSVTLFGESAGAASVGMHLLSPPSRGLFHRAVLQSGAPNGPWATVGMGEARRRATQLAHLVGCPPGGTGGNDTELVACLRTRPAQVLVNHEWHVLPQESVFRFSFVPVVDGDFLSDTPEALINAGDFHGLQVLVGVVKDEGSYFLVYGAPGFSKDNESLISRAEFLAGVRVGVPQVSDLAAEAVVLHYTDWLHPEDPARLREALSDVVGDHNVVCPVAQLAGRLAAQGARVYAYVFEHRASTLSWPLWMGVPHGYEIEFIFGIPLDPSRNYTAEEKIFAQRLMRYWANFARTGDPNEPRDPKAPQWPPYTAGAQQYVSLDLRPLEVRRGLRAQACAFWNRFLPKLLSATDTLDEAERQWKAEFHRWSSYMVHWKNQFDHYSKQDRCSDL
# [2] = target: Cholinesterase (Equus caballus) (UniProt P81908); experiment: Inhibition of […] equine serum BuChE at 20 uM using butyryl thiocholine iodide as substrate preincubated for 30 mins followed by substrate addition and measured after 30 mins by spectrophotometry based Ellman's method relative to control; assay type: cell-free; settings: time 60.0 min
# Chain of Cholinesterase (Equus caballus) (P81908 whole entry): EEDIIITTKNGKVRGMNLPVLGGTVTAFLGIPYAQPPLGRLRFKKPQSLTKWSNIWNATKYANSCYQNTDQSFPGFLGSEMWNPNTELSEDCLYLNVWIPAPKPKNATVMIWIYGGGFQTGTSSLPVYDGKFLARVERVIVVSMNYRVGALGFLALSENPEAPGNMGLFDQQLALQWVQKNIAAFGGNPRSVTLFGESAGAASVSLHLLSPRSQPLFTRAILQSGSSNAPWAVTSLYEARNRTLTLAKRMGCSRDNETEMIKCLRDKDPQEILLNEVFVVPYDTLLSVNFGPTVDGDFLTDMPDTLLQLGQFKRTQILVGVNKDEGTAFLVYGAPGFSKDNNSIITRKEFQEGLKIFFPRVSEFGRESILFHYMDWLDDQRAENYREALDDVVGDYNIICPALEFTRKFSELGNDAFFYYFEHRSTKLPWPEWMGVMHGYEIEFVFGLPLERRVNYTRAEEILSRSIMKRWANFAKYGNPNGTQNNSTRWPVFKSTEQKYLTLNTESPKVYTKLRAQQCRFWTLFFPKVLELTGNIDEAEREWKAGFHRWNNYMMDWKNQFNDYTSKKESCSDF
# [3] = target: Cholinesterase (Equus caballus, UniProt P81908); experiment: Inhibition of […] equine serum BuChE using butyryl thiocholine iodide as substrate preincubated for 30 mins followed by substrate addition and measured after 30 mins by spectrophotometry based Ellman's method; assay type: cell-free
# Chain of Cholinesterase (P81908 whole entry): as above
# [4] = Antioxidant activity assessed as DPPH radical scavenging activity at 20 uM incubated for 25 mins in shaker relative to control; assay type: functional
# [5] = Antioxidant activity assessed as DPPH radical scavenging activity incubated for 25 mins in shaker; assay type: functional
SMILES,pIC50 [1],inhibition [2] [%],pIC50 [3],Activity [4] [%],pIC50 [5]
COc1cc(/C=C/C(=O)NCC(=O)Nc2ccccc2F)ccc1O,4.76,31.9,,,
COc1cc(/C=C/C(=O)NCC(=O)Nc2ccccc2OC)ccc1O,5.24,43.3,,,
COc1ccc(NC(=O)CNC(=O)/C=C/c2ccc(O)c(OC)c2)cc1,4.76,49.9,4.71,23.6,4.04
COc1cc(/C=C/C(=O)N2CCN(c3ccc(Cl)cc3)CC2)ccc1O,4.95,33.2,,,
COc1cc(/C=C/C(=O)NCC(=O)Nc2cccc(C#N)c2)ccc1O,4.80,31.6,,,
COc1cc(/C=C/C(=O)NCC(=O)Nc2ccc(C)cc2)ccc1O,4.90,35.6,,,
COc1cc(/C=C/C(=O)NCC(=O)Nc2ccc(Cl)cc2)ccc1O,5.46,46.9,,16.7,3.99
COc1cc(/C=C/C(=O)NCC(=O)Nc2ccccc2C(F)(F)F)ccc1O,4.82,43.2,,,
COc1cc(/C=C/C(=O)NCC(=O)Nc2ccc(F)cc2)ccc1O,4.89,42.2,,,
COc1cc(/C=C/C(=O)NCC(=O)Nc2cccc(C(F)(F)F)c2)ccc1O,5.03,34.9,,,
COc1cc(/C=C/C(=O)N2CCN(c3ccccc3)CC2)ccc1O,4.53,37,,,
COc1cc(/C=C/C(=O)NCC(=O)Nc2ccc(C#N)cc2)ccc1O,4.76,35.7,,,
COc1cc(/C=C/C(=O)N2CCN(c3ccc(C)cc3)CC2)ccc1O,4.71,38.1,,,
COc1cc(/C=C/C(=O)NCC(=O)Nc2ccc(Br)cc2)ccc1O,4.99,39.3,,,
COc1ccc(N2CCN(C(=O)/C=C/c3ccc(O)c(OC)c3)CC2)cc1,4.92,44.7,,,
COc1cc(/C=C/C(=O)NCC(=O)Nc2cccc(C)c2)ccc1O,4.72,36.1,,,
